The text below walks through data of PubChem BioAssay (NCI).

Some test systems named below: CAKI-1 renal; HL-60(TB) leukemia; HOP-62 NSCLC; NCI-H460 lung; MALME-3M melanoma; OVCAR-4 ovarian; NCI/ADR-RES ovarian; MDA-MB-435; EKVX NSCLC; OVCAR-3 ovarian; COLO 205 colon; SK-MEL-2 melanoma; HOP-92 NSCLC; LOX IMVI melanoma; UACC-257 melanoma.
Holding throughout (assay): NCI anticancer screen, dose series, 48 h

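Results reflect a 48-hour exposure of cells in 96-well plates to compound at five concentrations. TGI marks complete inhibition of growth.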

Consider `O=C(O[C@@H](/C=C/c1ccccc1)P1(=O)N(Cc2ccccc2)[C@H]2CCCC[C@@H]2N1Cc1ccccc1)c1ccccc1`, for which the TGI with CAKI-1 renal is 11.5 µM; with HL-60(TB) leukemia, 7.66 µM; with HOP-62 NSCLC, 10.8 µM; in the assay on NCI-H460 lung it was 5.26 µM; in the assay with MALME-3M melanoma it was 31.6 µM; in the assay with OVCAR-4 ovarian it was > 100 µM. Further, the TGI in the assay on NCI/ADR-RES ovarian is > 100 µM; with MDA-MB-435 it was > 100 µM; with EKVX NSCLC, > 100 µM; in the assay on OVCAR-3 ovarian, 33.9 µM; in the assay with COLO 205 colon, 3.17 µM; in the assay with SK-MEL-2 melanoma, 3.98 µM. In addition, the TGI in the assay with HOP-92 NSCLC is 45.2 µM; in the assay on LOX IMVI melanoma, 14 µM; with UACC-257 melanoma it was 9.43 µM.

As to `Cc1cc(C)n(CC(Cn2nc(C)cc2C)=C(/C(Cl)=C(/Cl)Nc2ccc([N+](=O)[O-])cc2)[N+](=O)[O-])n1`, the TGI in the assay on CAKI-1 renal is 5.98 µM; in the assay with HL-60(TB) leukemia, 4.3 µM; in the assay with HOP-62 NSCLC, 22.2 µM; with NCI-H460 lung, 10.9 µM; with MALME-3M melanoma, 13.4 µM; in the assay on OVCAR-4 ovarian it was 3.4 µM. Moreover, the TGI is > 32.8 µM with NCI/ADR-RES ovarian; 8.95 µM with MDA-MB-435; 13.8 µM in the assay with EKVX NSCLC; 15.2 µM with OVCAR-3 ovarian; 5.36 µM with COLO 205 colon; 11.8 µM in the assay with SK-MEL-2 melanoma. Besides, the TGI was found to be 8.48 µM in the assay with HOP-92 NSCLC, 6.06 µM in the assay on LOX IMVI melanoma and 12.3 µM in the assay on UACC-257 melanoma.

Consider `N=C1OC(CN2CCN(c3ccccc3)CC2)CN1C(=S)Nc1ccccc1` (stereo not given), for which the TGI with CAKI-1 renal, with HL-60(TB) leukemia, in the assay with HOP-62 NSCLC, with NCI-H460 lung, with MALME-3M melanoma and in the assay with OVCAR-4 ovarian was > 100 µM in each case. In addition, the TGI in the assay on NCI/ADR-RES ovarian, in the assay on MDA-MB-435, in the assay with EKVX NSCLC, in the assay with OVCAR-3 ovarian, in the assay with COLO 205 colon and in the assay on SK-MEL-2 melanoma was > 100 µM each time. In addition, the TGI in the assay with HOP-92 NSCLC is > 100 µM; in the assay with LOX IMVI melanoma, 72.7 µM; with UACC-257 melanoma, > 100 µM.

As for `O=C1CSC(/C=C/c2ccccc2)N1c1nc2cc3sc(N4C(=O)CSC4/C=C/c4ccccc4)nc3cc2s1` (stereo not given), the TGI with CAKI-1 renal, with HL-60(TB) leukemia, in the assay on HOP-62 NSCLC, in the assay on NCI-H460 lung, in the assay on MALME-3M melanoma and with OVCAR-4 ovarian was > 100 µM throughout. For the same molecule, the TGI with NCI/ADR-RES ovarian was > 100 µM; in the assay with MDA-MB-435, > 100 µM; in the assay with EKVX NSCLC it was > 80.9 µM; with OVCAR-3 ovarian it was > 100 µM; in the assay with COLO 205 colon, > 29.8 µM; with SK-MEL-2 melanoma, > 100 µM. In addition, the TGI in the assay on HOP-92 NSCLC, in the assay on LOX IMVI melanoma and in the assay on UACC-257 melanoma was > 100 µM each time.

Consider `CC(C)OC(=O)c1ccc(CCC2=CC(=O)C=CC2=O)cc1`, for which the TGI in the assay with CAKI-1 renal came out at 4.26 µM; with HL-60(TB) leukemia, 7.56 µM; with HOP-62 NSCLC, 47.4 µM; in the assay with NCI-H460 lung it was 54.1 µM; in the assay with MALME-3M melanoma, 15.9 µM; in the assay on OVCAR-4 ovarian it was 29.6 µM. In addition, the TGI in the assay on NCI/ADR-RES ovarian is 22.1 µM; with MDA-MB-435, 39.8 µM; in the assay on EKVX NSCLC, 23.8 µM; with OVCAR-3 ovarian, 17 µM; in the assay on COLO 205 colon, 22.1 µM; in the assay with SK-MEL-2 melanoma it was 43.1 µM. Moreover, the TGI came out at 13.9 µM with HOP-92 NSCLC, 14.2 µM in the assay with LOX IMVI melanoma and 25.6 µM in the assay with UACC-257 melanoma.

Turning to `CN(C)CCCc1cccc2[nH]c3c(c12)CN(C)CC3`, the TGI with CAKI-1 renal, in the assay with HL-60(TB) leukemia, in the assay with HOP-62 NSCLC, in the assay on NCI-H460 lung, in the assay on MALME-3M melanoma and in the assay on OVCAR-4 ovarian was > 100 µM throughout. For the same molecule, the TGI in the assay on NCI/ADR-RES ovarian, in the assay with MDA-MB-435, with EKVX NSCLC, in the assay on OVCAR-3 ovarian, in the assay with COLO 205 colon and in the assay on SK-MEL-2 melanoma was > 100 µM throughout. The TGI in the assay with HOP-92 NSCLC, with LOX IMVI melanoma and in the assay with UACC-257 melanoma was > 100 µM throughout.

As to `COc1ccc(N=NC(=O)NC(Cc2ccccc2)C(=O)O)cc1` (stereo not given), the TGI in the assay on CAKI-1 renal, with HL-60(TB) leukemia, in the assay on HOP-62 NSCLC, in the assay on NCI-H460 lung, with MALME-3M melanoma and with OVCAR-4 ovarian was > 100 µM in each case. The TGI in the assay on NCI/ADR-RES ovarian, with MDA-MB-435, in the assay on EKVX NSCLC, in the assay on OVCAR-3 ovarian, in the assay on COLO 205 colon and in the assay on SK-MEL-2 melanoma was > 100 µM throughout. Moreover, the TGI with HOP-92 NSCLC, with LOX IMVI melanoma and in the assay with UACC-257 melanoma was > 100 µM in each case.
